Measured values from patent US12297175B2, “Physics-driven discovery of novel small therapeutic compounds for use as a BCL-2 inhibitor” (BAHCESEHIR UNIVERSITESI, priority 2020, dated 2025).

System: HCT-116 cell lines
Assay: MTT cell proliferation assay
Type: cell-based
Description: For cell culture experiments various cancer cell lines, HCT-116 colon cancer, U87-MG glial tumor, MCF7 breast cancer cell lines were used. Cells were seeded with high glucose DMEM medium (Biosera) supplemented with 10% FBS (Gibco) and 1× penicillin/streptomycin (Multicell). Twenty-four hours prior to molecule treatment, 10,000 cells were seeded into each well of 24-well cell culture plates. Molecules were used by preparing 4 mM stock solution in DMSO (Amresco). For molecule treatment, molecule stock solutions were diluted in DMEM with 10% FBS and added onto cells in each corresponding well. Final concentration of vehicle DMSO was 2% at maximum. […] We calculated the number of cells to be seeded to make sure that none of the cells reaches more than 60% confluency during the treatment period, as higher plate confluency levels would slow down cell proliferation independently from the molecule treatment.
Values of half-maximal inhibitory concentration were (IC50) determined by MTT cell proliferation assays. […] 570 nm absorbance values were recorded and IC50 values were calculated by dose response—inhibition curves and nonlinear regression analysis on GraphPad Prism 8 software. […] Following the initial incubation day, molecules were added and after incubation with MTT at 37° C. for 4 hours, formazan was solubilized with DMSO (Sigma-Aldrich, St. Louis, USA) and absorbance was measured at 570 nm. […]

IC50 (Homo sapiens, 72 h, HCT-116 colon cancer cells, single treatment, three days results, 570 nm absorbance, read-out: IC50 value (half-maximal inhibitory concentration)): 24 µM
Compound: Cc1ccc(C2CC(=O)N=C(SCC(=O)Nc3ccc(Br)cc3Cl)C2C#N)cc1 (centres unmarked) [compound of formula I]
cell proliferation compared with vehicle group (FIG. 1) (HCT-116 cells, cell viability over time vs vehicle (max 2% DMSO)): reduced proliferation and apoptotic cell structures
